According to US10849958B2, “Knee pain evaluation and management via WOMAC and KOOS systems” (ORTHOTROPHIX, INC., priority 2017, dated 2020):
Ends that are not written are not given here.

Test system: subjects with bilateral patello-femoral knee osteoarthritis
Test: Randomized double-blind placebo-controlled clinical study of TPX-100, safety and tolerability
Format: in vivo, human
[1] = intra-articular, four weekly doses, throughout the study period

Substance: TDLQERGDNDISPFSGDGQPFKD-NH2 [TPX-100]
- Dose-limiting toxicities (Part A, 20, 50, 100 and 200 mg per intra-articular injection, four weekly injections): no dose-limiting toxicities
- Severe adverse events related to the drug treatment [1]: no severe adverse events likely or possibly related to the drug treatment
- Severity of treatment-related adverse events [1]: mild or moderate, transient
- Safety and tolerability of the treatments (intra-articular, four weekly doses, throughout the study period (12 months)): safe and well tolerated
